Source: patent US20170333391A1, “METHOD FOR DELAYING THE ONSET OF PULMONARY FIBROSIS OR TREATING PULMONARY FIBROSIS” (EVERFRONT BIOTECH INC., priority 2016, published 2017)

Legend:
[1] = system: Rat type II alveolar cell, L2 cell line; test: Cell survival test (MTT analysis) under H2O2 oxidative stress; assay type: cell-based; conditions: 24 hours, control group = 100%
Procedure: The rat type II alveolar cell, L2 cell line (ATCC® CCL149™) were seeded into a 96-well plate at a density of 5×10^3 cells/well, 48 wells in total (separated into a control group and five experimental groups, 8 wells for each group). The cells were cultured until the next day, and then the mediums were removed. Each group was respectively treated under the following conditions to conduct follow-up experiments:
(1) Control group: cells were cultured in a F-12K medium (Kaighn's Modification of Ham's F-12 Medium, ATCC® 30-2004™) for 24 hours;
(2) Group 1: cells were cultured in a F-12K medium containing H2O2 (0.1 mM) for 24 hours;
(3) Group 2: cells were cultured in a F-12K medium containing H2O2 (0.1 mM) and compound (1) (5 μg/ml) for 24 hours;
(4) Group 3: cells were cultured in a F-12K medium containing H2O2 (0.1 mM) and N-acetylcysteine (NAC) (2 mM) for 24 hours;
(5) Group 4: cells were cultured in a F-12K medium containing H2O2 (0.2 mM) and compound (1) (5 μg/ml) for 24 hours; and
(6) Group 5: cells were cultured in a F-12K medium containing H2O2 (0.2 mM) and NAC (2 mM) for 24 hours.
The mediums were removed after culturing was complete, and then each group was respectively treated under the following conditions: F-12K mediums containing 10% of 3-(4,5-Dimethylthiazol-2-yl)-2,5-diphenyltetrazolium bromide (MTT) were added into each well, and cultured for 1 hour. Thereafter, the mediums were removed, and a suitable amount of dimethyl sulfoxide (DMSO) was added into the wells. An Enzyme-Linked ImmunoSorbent Assay reader (ELISA reader) was then used for detecting the absorbance of each group at a wavelength of 595 nm (OD595nm). The average value of each group was respectively calculated (n=8), and then the result of the control group served as the basis for calculating the relative survival rates of the other groups.

TGF-β = TGF-β mRNA expression in NHLF, Q-PCR (3-2); assay type: cell-based, human; conditions: 24 hours
Procedure: Normal Human lung fibroblasts (NHLF) were seeded into 6-well plate at a density of 10^5 cells/well, comprising a control group and five experimental groups (6 wells in total). The cells were cultured until the next day, and then the mediums were removed. Each group was respectively treated under the following conditions to conduct follow-up experiments: • (1) Control group: cells were cultured in a FGM-2 medium containing 1% serum for 24 hours; • (2) Group α: cells were cultured in a FGM-2 medium containing 1% serum and compound (1) (5 μg/ml) for 24 hours; • (3) Group β: cells were cultured in a FGM-2 medium containing 1% serum and compound (1) (10 μg/ml) for 24 hours; • (4) Group γ: cells were cultured in a F-12K medium containing 1% serum and H2O2 (0.1 mM) for 24 hours; • (5) Group δ: cells were cultured in a F-12K medium containing 1% serum, H2O2 (0.1 mM) and compound (1) (5 μg/ml) for 24 hours; and • (6) Group ε: cells were cultured in a F-12K medium containing 1% serum, H2O2 (0.1 mM) and compound (1) (10 μg/ml) for 24 hours.
Thereafter, the total RNA of cells taken from each group were extracted, and then reverse transcription was conducted on the total RNA by using a QuantiTect Reverse Transcription Kit to obtain cDNA therefrom. A Q-PCR was then conducted on the cDNA to analyze the mRNA expression levels of genes such as α-SMA and TGF-β, wherein GAPDH gene served as an internal control. The results of the control group served as the basis for calculating the relative expression levels of the other groups.

TGF-β protein = TGF-β protein expression in TGF-β1-induced NHLF, western blotting (Example 4); assay type: cell-based, human; conditions: uninduced control = 1, TGF-β1-only group A = 1.75
Procedure: Normal Human lung fibroblasts (NHLF) were seeded into 6 cm culture dishes at a density of 2×10^5 cells/dish, comprising a control group and five experimental groups (6 dishes in total). The cells were cultured until the next day, and then the mediums were removed. Each group was respectively treated under the following conditions to conduct follow-up experiments: • (1) Control group: cells were cultured in a FGM-2 medium containing 1% serum for 36 hours; • (2) Group A: cells were cultured in a FGM-2 medium containing 1% serum and TGF-β1 (5 ng/ml) for 36 hours; • (3) Group B: cells were firstly cultured in a FGM-2 medium containing 1% serum and TGF-β1 (5 ng/ml) for 12 hours, and then compound (1) was added into the medium to provide a final concentration of 15 μg/ml; thereafter, the cells were cultured for another 24 hours; • (4) Group C: cells were firstly cultured in a FGM-2 medium containing 1% serum and TGF-β1 (5 ng/ml) for 12 hours, and then compound (1) was added into the medium to provide a final concentration of 30 μg/ml; thereafter, the cells were cultured for another 24 hours; • (5) Group D: cells were firstly cultured in a FGM-2 medium containing 1% serum and TGF-β1 (5 ng/ml) for 12 hours, and then compound (2) was added into the medium to provide a final concentration of 100 μg/ml; thereafter, the cells were cultured for another 24 hours; and • (6) Group E: cells were firstly cultured in a FGM-2 medium containing 1% serum and TGF-β1 (5 ng/ml) for 12 hours, and then compound (2) was added into the medium to provide a final concentration of 200 μg/ml; thereafter, the cells were cultured for another 24 hours.
Thereafter, the proteins in the cells of each group were extracted, and the expressions of BMP-7 protein, TGF-β protein and p-smad2/3 protein in the NHLF cells of each group were measured with western blotting. The results of the control group served as the basis for calculating the relative expression levels of the other groups.

Compound: CCCC=C1OC(=O)c2ccccc21 [compound (1)]
- Relative survival rate ([1]; Group 2: H2O2 0.1 mM + compound (1) 5 μg/ml, H2O2 0.1 mM alone = 38.9%): 109.4%
- Relative survival rate ([1]; Group 4: H2O2 0.2 mM + compound (1) 5 μg/ml): 80.6%
- Relative expression level (fold) TGF-β (TGF-β; Group α: mRNA, FGM-2 medium 1% serum + compound (1) 5 μg/ml, control group = 1): 0.61 fold
- Relative expression level (fold) TGF-β (TGF-β; Group β: mRNA, FGM-2 medium 1% serum + compound (1) 10 μg/ml, control group = 1): 0.12 fold
- Relative expression level (fold) TGF-β (TGF-β; Group δ: mRNA, F-12K medium 1% serum + H2O2 0.1 mM + compound (1) 5 μg/ml, control group = 1, H2O2-only group γ = 0.34): 0.42 fold
- Relative expression level (fold) TGF-β (TGF-β; Group ε: mRNA, F-12K medium 1% serum + H2O2 0.1 mM + compound (1) 10 μg/ml, control group = 1, H2O2-only group γ = 0.34): 0.04 fold
- Relative expression level (fold) TGF-β protein (TGF-β protein; Group B: TGF-β1 5 ng/ml 12 h, then compound (1) 15 μg/ml 24 h): 1.27 fold
- Relative expression level (fold) TGF-β protein (TGF-β protein; Group C: TGF-β1 5 ng/ml 12 h, then compound (1) 30 μg/ml 24 h): 1.34 fold
